Laboratory results published in ChEMBL document CHEMBL1201862, “PubChem BioAssay data set” (2004).
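Grown in 96-well plates, cells were treated for 48 hours with each compound at five concentrations. Insufficient inhibition: endpoint recorded as highest concentration tested. GI50 = concentration required for 50% inhibition of growth.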 Active and inactive are the calls of the source. No stated cut-off is given here; in the data, active = GI50 up to about 1.1 µM and inactive = higher.

Legend:
Experiment in all cases: DTP human tumour cell line panel, 48 h
A498 = system: A498
COLO 205 = system: COLO 205
EKVX = system: EKVX
HCT-15 = system: HCT-15
HL-60 = system: HL-60
Hs-578T = system: Hs-578T
K562 = system: K562
KM12 = system: KM12
MDA-N = system: MDA-N
Malme-3M = system: Malme-3M
NCI-H226 = system: NCI-H226
NCI-H23 = system: NCI-H23
NCI-H460 = system: NCI-H460
OVCAR-3 = system: OVCAR-3
PC-3 = system: PC-3
RPMI-8226 = system: RPMI-8226
SF-268 = system: SF-268
SF-539 = system: SF-539
SK-MEL-2 = system: SK-MEL-2
UACC-257 = system: UACC-257

O=C1O/C(=C(/Cl)c2c3ccccc3cc3ccccc23)c2ccccc21
GI50 (A498): 27 µM (inactive) | GI50 (COLO 205): 23.2 µM (inactive) | GI50 (EKVX): 26.4 µM (inactive) | GI50 (HCT-15): 20.6 µM | GI50 (HL-60): 4.1 µM (inactive) | GI50 (Hs-578T): 23 µM (inactive) | GI50 (K562): 13.8 µM (inactive) | GI50 (KM12): 4.02 µM (inactive) | GI50 (MDA-N): 27.4 µM (inactive) | GI50 (Malme-3M): 48.1 µM (inactive) | GI50 (NCI-H226): 26.7 µM (inactive) | GI50 (NCI-H23): 26.1 µM (inactive) | GI50 (NCI-H460): 26.5 µM (inactive) | GI50 (OVCAR-3): 20.1 µM (inactive) | GI50 (PC-3): 24.8 µM (inactive) | GI50 (RPMI-8226): 20.3 µM (inactive) | GI50 (SF-268): 30.5 µM (inactive) | GI50 (SF-539): 23.6 µM (inactive) | GI50 (SK-MEL-2): 15.8 µM (inactive) | GI50 (UACC-257): 33.2 µM (inactive)

COC(=O)c1ccc(CCc2cc(O)c(Br)cc2O)cc1
GI50 (A498): 22.1 µM (inactive) | GI50 (COLO 205): 12.6 µM (inactive) | GI50 (EKVX): 16.9 µM (inactive) | GI50 (HCT-15): 13.4 µM | GI50 (HL-60): 1.86 µM (inactive) | GI50 (Hs-578T): 33.3 µM (inactive) | GI50 (K562): 1.74 µM (inactive) | GI50 (KM12): 15.1 µM (inactive) | GI50 (MDA-N): 15.7 µM (inactive) | GI50 (Malme-3M): 15.7 µM (inactive) | GI50 (NCI-H226): 21.4 µM (inactive) | GI50 (NCI-H23): 10.4 µM (inactive) | GI50 (NCI-H460): 16.8 µM (inactive) | GI50 (OVCAR-3): 8.02 µM (inactive) | GI50 (PC-3): 8.02 µM (inactive) | GI50 (RPMI-8226): 3.35 µM (inactive) | GI50 (SF-268): 13.5 µM (inactive) | GI50 (SF-539): 8.3 µM (inactive) | GI50 (SK-MEL-2): 18.9 µM (inactive) | GI50 (UACC-257): 15.5 µM (inactive)

CCCC[C@@H]1CCN2C[C@@H](O)[C@@H](O)[C@@H]2[C@H]1O
GI50 (A498): > 100 µM (inactive) | GI50 (COLO 205): > 100 µM (inactive) | GI50 (EKVX): > 100 µM (inactive) | GI50 (HCT-15): > 100 µM | GI50 (HL-60): > 100 µM (inactive) | GI50 (Hs-578T): > 100 µM (inactive) | GI50 (K562): > 100 µM (inactive) | GI50 (KM12): > 100 µM (inactive) | GI50 (MDA-N): > 100 µM (inactive) | GI50 (Malme-3M): > 100 µM (inactive) | GI50 (NCI-H226): > 100 µM (inactive) | GI50 (NCI-H23): > 100 µM (inactive) | GI50 (NCI-H460): > 100 µM (inactive) | GI50 (OVCAR-3): > 100 µM (inactive) | GI50 (PC-3): > 100 µM (inactive) | GI50 (RPMI-8226): > 100 µM (inactive) | GI50 (SF-268): > 100 µM (inactive) | GI50 (SF-539): > 100 µM (inactive) | GI50 (SK-MEL-2): > 100 µM (inactive) | GI50 (UACC-257): > 100 µM (inactive)

CCn1c(SCC(=O)NNC(=S)Nc2ccc(C)cc2)nc2ccccc2c1=O
GI50 (A498): > 100 µM (inactive) | GI50 (COLO 205): > 100 µM (inactive) | GI50 (EKVX): > 100 µM (inactive) | GI50 (HCT-15): > 100 µM | GI50 (HL-60): > 100 µM (inactive) | GI50 (Hs-578T): > 100 µM (inactive) | GI50 (K562): 51.9 µM (inactive) | GI50 (KM12): > 100 µM (inactive) | GI50 (MDA-N): > 100 µM (inactive) | GI50 (Malme-3M): > 100 µM (inactive) | GI50 (NCI-H226): > 100 µM (inactive) | GI50 (NCI-H23): > 100 µM (inactive) | GI50 (NCI-H460): 1.6 µM (inactive) | GI50 (OVCAR-3): > 100 µM (inactive) | GI50 (PC-3): > 100 µM (inactive) | GI50 (RPMI-8226): 70.1 µM (inactive) | GI50 (SF-268): 57.3 µM (inactive) | GI50 (SF-539): > 100 µM (inactive) | GI50 (SK-MEL-2): > 100 µM (inactive) | GI50 (UACC-257): > 100 µM (inactive)

Cc1noc(C)c1-n1nc2ccc3nonc3c2n1
GI50 (A498): 32.7 µM (inactive) | GI50 (COLO 205): > 100 µM (inactive) | GI50 (EKVX): 35.9 µM (inactive) | GI50 (HCT-15): > 100 µM | GI50 (HL-60): > 100 µM (inactive) | GI50 (Hs-578T): 29 µM (inactive) | GI50 (K562): > 100 µM (inactive) | GI50 (KM12): > 100 µM (inactive) | GI50 (MDA-N): > 100 µM (inactive) | GI50 (Malme-3M): > 100 µM (inactive) | GI50 (NCI-H226): > 81.8 µM (inactive) | GI50 (NCI-H23): > 72.8 µM (inactive) | GI50 (NCI-H460): > 100 µM (inactive) | GI50 (OVCAR-3): > 100 µM (inactive) | GI50 (PC-3): > 100 µM (inactive) | GI50 (RPMI-8226): > 100 µM (inactive) | GI50 (SF-268): 41 µM (inactive) | GI50 (SF-539): 41.5 µM (inactive) | GI50 (SK-MEL-2): 48.9 µM (inactive) | GI50 (UACC-257): > 100 µM (inactive)

O=c1[nH]c2nccn2c2c1SCCN2
GI50 (A498): > 100 µM (inactive) | GI50 (COLO 205): > 100 µM (inactive) | GI50 (EKVX): > 100 µM (inactive) | GI50 (HCT-15): > 100 µM | GI50 (HL-60): > 100 µM (inactive) | GI50 (Hs-578T): > 100 µM (inactive) | GI50 (K562): > 100 µM (inactive) | GI50 (KM12): > 100 µM (inactive) | GI50 (MDA-N): > 100 µM (inactive) | GI50 (Malme-3M): > 100 µM (inactive) | GI50 (NCI-H226): > 100 µM (inactive) | GI50 (NCI-H23): > 100 µM (inactive) | GI50 (NCI-H460): > 100 µM (inactive) | GI50 (OVCAR-3): > 100 µM (inactive) | GI50 (PC-3): > 100 µM (inactive) | GI50 (RPMI-8226): > 100 µM (inactive) | GI50 (SF-268): > 100 µM (inactive) | GI50 (SF-539): > 100 µM (inactive) | GI50 (SK-MEL-2): > 100 µM (inactive) | GI50 (UACC-257): > 100 µM (inactive)

O=C1c2ccccc2-c2[nH]c3cn[nH]c(=O)c3c21
GI50 (A498): 33.5 µM (inactive) | GI50 (COLO 205): 89.5 µM (inactive) | GI50 (EKVX): 79.4 µM (inactive) | GI50 (HCT-15): 82.6 µM | GI50 (HL-60): > 100 µM (inactive) | GI50 (Hs-578T): 64.9 µM (inactive) | GI50 (K562): 61.2 µM (inactive) | GI50 (KM12): > 100 µM (inactive) | GI50 (MDA-N): 61.4 µM (inactive) | GI50 (Malme-3M): > 100 µM (inactive) | GI50 (NCI-H226): 78.7 µM (inactive) | GI50 (NCI-H23): > 100 µM (inactive) | GI50 (NCI-H460): 64.9 µM (inactive) | GI50 (OVCAR-3): > 100 µM (inactive) | GI50 (PC-3): > 100 µM (inactive) | GI50 (RPMI-8226): 92.9 µM (inactive) | GI50 (SF-268): 99.1 µM (inactive) | GI50 (SF-539): > 100 µM (inactive) | GI50 (SK-MEL-2): 47.2 µM (inactive) | GI50 (UACC-257): > 100 µM (inactive)

C[C@@]1(CCCCCCCCCCc2ccccc2)C[C@@]2(C)OC(=O)C[C@H]2OO1
GI50 (A498): 19.7 µM (inactive) | GI50 (COLO 205): 1.7 µM (inactive) | GI50 (EKVX): 2.52 µM (inactive) | GI50 (HCT-15): 1.73 µM | GI50 (HL-60): 0.399 µM (active) | GI50 (Hs-578T): 2.47 µM (inactive) | GI50 (K562): 1.68 µM (inactive) | GI50 (KM12): 1.81 µM (inactive) | GI50 (MDA-N): 1.99 µM (inactive) | GI50 (Malme-3M): 1.54 µM (inactive) | GI50 (NCI-H226): 3.1 µM (inactive) | GI50 (NCI-H23): 1.55 µM (inactive) | GI50 (NCI-H460): 1.96 µM (inactive) | GI50 (OVCAR-3): 1.79 µM (inactive) | GI50 (PC-3): 1.77 µM (inactive) | GI50 (RPMI-8226): 1.85 µM (inactive) | GI50 (SF-268): 1.8 µM (inactive) | GI50 (SF-539): 1.57 µM (inactive) | GI50 (SK-MEL-2): 20.9 µM (inactive) | GI50 (UACC-257): 2.12 µM (inactive)

Cc1c(S(=O)(=O)c2ccccc2)c(N)n(Cc2ccccc2)c1C
GI50 (A498): > 100 µM (inactive) | GI50 (COLO 205): > 100 µM (inactive) | GI50 (EKVX): > 100 µM (inactive) | GI50 (HCT-15): > 100 µM | GI50 (HL-60): > 100 µM (inactive) | GI50 (Hs-578T): 53.1 µM (inactive) | GI50 (K562): > 100 µM (inactive) | GI50 (KM12): > 100 µM (inactive) | GI50 (MDA-N): > 100 µM (inactive) | GI50 (Malme-3M): > 100 µM (inactive) | GI50 (NCI-H226): > 100 µM (inactive) | GI50 (NCI-H23): > 100 µM (inactive) | GI50 (NCI-H460): > 100 µM (inactive) | GI50 (OVCAR-3): 96.8 µM (inactive) | GI50 (PC-3): 38.2 µM (inactive) | GI50 (RPMI-8226): > 100 µM (inactive) | GI50 (SF-268): 80.5 µM (inactive) | GI50 (SF-539): 53.1 µM (inactive) | GI50 (SK-MEL-2): > 100 µM (inactive) | GI50 (UACC-257): > 100 µM (inactive)

CC(C)(C)OC(=O)N1CC(COS(C)(=O)=O)c2ccc(O)cc21 (stereo not given)
GI50 (A498): 2.18 µM (inactive) | GI50 (COLO 205): 1.58 µM (inactive) | GI50 (EKVX): 2.23 µM (inactive) | GI50 (HCT-15): 2.46 µM | GI50 (HL-60): 1.24 µM (inactive) | GI50 (Hs-578T): 2.46 µM (inactive) | GI50 (K562): 2.3 µM (inactive) | GI50 (KM12): 2.46 µM (inactive) | GI50 (MDA-N): 2.08 µM (inactive) | GI50 (Malme-3M): 1.52 µM (inactive) | GI50 (NCI-H226): 1.92 µM (inactive) | GI50 (NCI-H23): 1.14 µM (inactive) | GI50 (NCI-H460): 2.14 µM (inactive) | GI50 (OVCAR-3): 2.05 µM (inactive) | GI50 (PC-3): 1.73 µM (inactive) | GI50 (RPMI-8226): 0.615 µM (active) | GI50 (SF-268): 1.72 µM (inactive) | GI50 (SF-539): 2.06 µM (inactive) | GI50 (SK-MEL-2): 1.51 µM (inactive) | GI50 (UACC-257): 2.29 µM (inactive)
